Measured values reported in patent US20140206615A1, “GLP-1 AGONIST AND CARDIOVASCULAR COMPLICATIONS” (NOVO NORDISK A/S, priority 2002, published 2014).

System: BNP in heart tissue
Test: BNP mRNA and protein levels in cardiac biopsies of STZ-treated pigs (real-time PCR, RIA)
Format: in vivo, pig
Settings: streptozotocin (STZ)-treated pigs; 3.3 μg/kg s.c. once daily for 4 weeks; right atrial, left atrial and left ventricular biopsies; FIG. 1
Experimental: Hearts from 12 streptozotocin (STZ)-treated pigs were collected. The pigs were treated with STZ 2 weeks prior to dosing with either the GLP-1 derivative Arg^34, Lys^26(N^ε-(γ-Glu(N^α-hexadecanoyl)))-GLP-1(7-37) (NN2211) for 4 weeks, dose 3.3 μg/kg s.c. once daily, or vehicle. STZ-treated pigs were either hyperglycemic or glucose intolerant and had impaired insulin secretion upon oral glucose tolerance tests. BNP mRNA and protein levels in cardiac biopsies were measured with real-time PCR and RIA assays, respectively. BNP mRNA levels were normalized by β-actin mRNA levels.
BNP mRNA levels were similar in right atrial (RA), left atrial (LA) and in left ventricular (LV) biopsies from vehicle treated diabetic pigs (−GLP).

## CCCCCCCCCCCCCCCC(=O)N[C@@H](CCC(=O)NCCCC[C@H](NC(=O)[C@H](C)NC(=O)[C@H](C)NC(=O)[C@H](CCC(N)=O)NC(=O)CNC(=O)[C@H](CCC(=O)O)NC(=O)[C@H](CC(C)C)NC(=O)[C@H](Cc1ccc(O)cc1)NC(=O)[C@H](CO)NC(=O)[C@H](CO)NC(=O)[C@@H](NC(=O)[C@H](CC(=O)O)NC(=O)[C@H](CO)NC(=O)[C@@H](NC(=O)[C@H](Cc1ccccc1)NC(=O)[C@@H](NC(=O)CNC(=O)[C@H](CCC(=O)O)NC(=O)[C@H](C)NC(=O)[C@@H](N)Cc1cnc[nH]1)[C@@H](C)O)[C@@H](C)O)C(C)C)C(=O)N[C@@H](CCC(=O)O)C(=O)N[C@@H](Cc1ccccc1)C(=O)N[C@H](C(=O)N[C@@H](C)C(=O)N[C@@H](Cc1c[nH]c2ccccc12)C(=O)N[C@@H](CC(C)C)C(=O)N[C@H](C(=O)N[C@@H](CCCNC(=N)N)C(=O)NCC(=O)N[C@@H](CCCNC(=N)N)C(=O)NCC(=O)O)C(C)C)[C@@H](C)CC)C(=O)O [NN2211, Arg^34, Lys^26(N^ε-(γ-Glu(N^α-hexadecanoyl)))-GLP-1(7-37)]
  levels of BNP (BNP mRNA normalized by β-actin mRNA) in cardiac biopsies vs vehicle: significantly lower
